Here are results for one compound from PMC6774072, “Azologization and repurposing of a hetero-stilbene-based kinase inhibitor: towards the design of photoswitchable sirtuin inhibitors” (Beilstein Journal of Organic Chemistry, 2019).

For one assay, the target named is T1, Sirt1 (Homo sapiens, UniProt Q96EB6).
T1 construct: Expression and purification of Sirt1_133-747; made in house
T1 sequence (Q96EB6 133-747): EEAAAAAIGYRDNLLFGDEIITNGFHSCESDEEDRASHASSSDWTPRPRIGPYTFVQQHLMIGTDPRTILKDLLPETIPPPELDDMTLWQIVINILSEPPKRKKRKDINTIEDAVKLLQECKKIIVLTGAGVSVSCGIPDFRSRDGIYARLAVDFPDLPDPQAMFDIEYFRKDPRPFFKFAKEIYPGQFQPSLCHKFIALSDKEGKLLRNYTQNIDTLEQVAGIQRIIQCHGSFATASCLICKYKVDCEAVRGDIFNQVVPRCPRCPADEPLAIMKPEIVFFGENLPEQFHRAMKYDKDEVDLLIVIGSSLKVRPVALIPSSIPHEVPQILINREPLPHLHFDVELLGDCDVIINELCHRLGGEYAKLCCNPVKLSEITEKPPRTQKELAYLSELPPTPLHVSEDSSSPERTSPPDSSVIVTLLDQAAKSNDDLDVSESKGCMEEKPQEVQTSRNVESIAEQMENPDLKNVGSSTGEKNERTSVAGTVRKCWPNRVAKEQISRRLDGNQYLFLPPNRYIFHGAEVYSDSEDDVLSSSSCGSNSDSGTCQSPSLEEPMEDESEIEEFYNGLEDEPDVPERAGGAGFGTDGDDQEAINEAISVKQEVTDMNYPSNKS
As to the kind of experiment: fluorescence-based deacetylase assay with Z-Lys(acetyl)-AMC (ZMAL) substrate. The assay is classed as biochemical. The conditions noted are these: @ 100 µM. On the procedure: (§1) The influence on deacetylase activity of three human sirtuin isoforms (Sirt1–3) was determined in a fluorescence-based assay, using Z-Lys(acetyl)-AMC (ZMAL) as a substrate. Compared to the lead structure 2a, all compounds except 2e–h show increased inhibitory activity against Sirt2 (Table 1). […] Moreover, a slight increase in selectivity for Sirt2 and Sirt3 over Sirt1 could be observed for 2c, 4a and 4b. […] Though not photoswitchable, compounds 4a and 4b were synthesized to test the influence of a rigid conformation around the C=C double bond on sirtuin inhibition. […] A recently developed fluorescence polarization (FP)-based assay enables mapping of ligand binding to this specific binding site. For 2a an interaction with the selectivity pocket was already implied in the same work. Additionally performed docking studies proposed a binding mode in which 2a mimics the nicotinamide residue of NAD^+, whereas aromatic amino acid residues of the selectivity pocket stabilize the dimethylphenol ring. As photoisomerization in stilbenes and azo dyes is accompanied by a perpendicular twist of the phenyl ring towards the former molecular plane, we assumed that this conformational change should provoke a differential binding situation at least for the dimethylphenol residue in 2a. Unfortunately, binding of 2b and c could not be localised in the vicinity of the selectivity pocket of Sirt2, so that the binding pose remains unclear.
(§2) The photoswitchable diazeno compound 11 was subjected to biological evaluation to test the effect of photoisomerization on the inhibitory activity. The enzyme assay mixture containing 11 was exposed to 5 minutes of 365 nm radiation and compared with the results of a non-irradiated measurement. […] Unfortunately, 365 nm radiation turned out to have only minor effects on the IC50 values of 11 (Table 3).
(§3) Cloning, expression and purification of recombinant proteins: Expression and purification of Sirt1_133-747, Sirt2_56−356, and Sirt3_118−395 was carried out as described previously. Identity and purity were verified by SDS-PAGE [65]. Protein concentration was determined by the Bradford assay.
(§4) Bioassay: The inhibitory effect of compounds 2a–h, 4a/b, 8a and 11 on Sirt1–3 was detected via a previously reported fluorescence based assay. The synthetic substrate Z-Lys(acetyl)-AMC (ZMAL) is deacetylated by sirtuins, followed by tryptic digestion and thereby release of […], leading to a fluorescent readout. Inhibition was determined by comparing percentage substrate conversion to a DMSO control after subtraction of the blank fluorescence signal. All compounds were tested at 100 µM, 50 µM and 10 µM, respectively. […] IC50 values were calculated with OriginPro 9.0 G using a non-linear regression to fit the dose response curve. An enzyme-free blank control and a 100% conversion control using AMC instead of ZMAL were measured as well. Inhibition measurements were performed in biological duplicates for all compounds.

The target of a further assay is T2, Sirt2 (Homo sapiens, UniProt Q8IXJ6).
T2 construct: Sirt2_56−356; made in house
T2 sequence (Q8IXJ6 56-356): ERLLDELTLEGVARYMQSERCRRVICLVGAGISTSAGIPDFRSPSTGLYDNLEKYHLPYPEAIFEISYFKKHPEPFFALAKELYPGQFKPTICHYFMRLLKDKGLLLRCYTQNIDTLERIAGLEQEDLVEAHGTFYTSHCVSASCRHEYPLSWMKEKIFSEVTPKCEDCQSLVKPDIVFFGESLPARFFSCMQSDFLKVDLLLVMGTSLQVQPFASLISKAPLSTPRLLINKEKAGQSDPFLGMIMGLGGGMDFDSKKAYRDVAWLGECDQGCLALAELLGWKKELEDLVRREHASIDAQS
The assay is described as above. In kind it is biochemical. The conditions noted are these: read-out: Sirt2 inhibition IC50. On the procedure: as §1, §2, §3, §4

[1] abbreviates: photostationary state (PSS) after 5 minutes of 365 nm irradiation.
[2] abbreviates: thermal equilibrium (∆), non-irradiated.

What is called inhibition is the percentage by which the read-out fell short of the control. Low values mean little suppression, high ones strong suppression. The term IC50 denotes the concentration needed to halve the response being measured.

Like-named read-outs stand apart in the source and are kept apart here.

Take `NC(=O)c1cncc(N=Nc2ccc(F)cc2)c1` [Compound 11, 5-[(4-Fluorophenyl)diazenyl]nicotinamide]: the values for the inhibition at 100 µM at Sirt1 (setting [1]) and against Sirt1 (setting [2]) were 19% and 35%, respectively. Also, the IC50 was found to be 24.1 ± 1.69 µM on Sirt2 (setting [1]) and 18.9 ± 1.38 µM at Sirt2 (setting [2]).
